The target in data set [1] is T1, Broad substrate specificity ATP-binding cassette transporter ABCG2 (Homo sapiens, UniProt Q9UNQ0).
T1 sequence (Q9UNQ0 whole entry): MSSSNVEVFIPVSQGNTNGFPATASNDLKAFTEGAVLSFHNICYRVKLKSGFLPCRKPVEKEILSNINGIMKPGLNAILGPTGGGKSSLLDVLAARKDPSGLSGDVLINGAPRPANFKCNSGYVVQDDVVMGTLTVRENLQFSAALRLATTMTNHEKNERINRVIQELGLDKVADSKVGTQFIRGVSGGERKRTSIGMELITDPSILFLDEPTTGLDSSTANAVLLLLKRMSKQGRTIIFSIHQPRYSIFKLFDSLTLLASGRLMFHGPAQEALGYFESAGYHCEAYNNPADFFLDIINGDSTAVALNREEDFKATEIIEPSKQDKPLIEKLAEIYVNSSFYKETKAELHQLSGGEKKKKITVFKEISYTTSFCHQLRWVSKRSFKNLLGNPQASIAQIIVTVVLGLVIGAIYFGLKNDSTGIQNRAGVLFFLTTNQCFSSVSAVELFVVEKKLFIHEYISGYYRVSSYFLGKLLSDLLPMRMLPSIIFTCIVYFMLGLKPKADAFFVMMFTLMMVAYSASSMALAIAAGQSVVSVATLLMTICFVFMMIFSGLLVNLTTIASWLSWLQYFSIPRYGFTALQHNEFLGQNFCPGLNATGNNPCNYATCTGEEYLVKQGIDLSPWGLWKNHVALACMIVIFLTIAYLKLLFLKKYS
Description: Inhibition of ABCG2 expressed in human NCI-H460 cells assessed as inhibition of PhA accumulation relative to fumitremorgin C. The class given is cell-based.

The target in data set [2] is T1, Broad substrate specificity ATP-binding cassette transporter ABCG2. The experiment in a line: Inhibition of ABCG2-mediated drug efflux expressed in human NCI-H460 cells. It counts as cell-based.

Experimental findings from ChEMBL document CHEMBL1177800, “Inhibition of ABCG2-mediated drug efflux by naphthopyrones from marine crinoids” (Bioorg Med Chem Lett, 2010) are described below.

The structures appear in SMILES notation.

For the compound `COc1cc(O)c2c(O)c3c(=O)cc(C)oc3c(OC)c2c1`, the “inhibition (INH)” value in data set [1] is “Not Active”. Moreover, in data set [2] (nci-h460), the IC50 (as a rule, the concentration that inhibits the measured activity by half) was “Not Active”.

On to `CCCc1cc(=O)c2c(O)c3c(O)cc(OC)cc3c(OC)c2o1`, for which the “inhibition (INH)” value in data set [1] is “Not Active”. The IC50 entry in data set [2] (nci-h460) is given as “Not Active”.

For `COc1c(O)c2c(=O)cc(C)oc2c2c(OC)cc(O)cc12`, in data set [1], the “inhibition (INH)” value stood at 59.3%. Also, the IC50 in data set [2] (read-out: IC50) was found to be 11.9 µM.

For `COc1c(OC)c2c(=O)cc(C)oc2c2c(OC)cc(O)cc12`, in data set [1], the “inhibition (INH)” value was “Not Active”. Further, the IC50 entry in data set [2] (nci-h460) is recorded as “Not Active”.

For `CCCc1cc(=O)c2c(OC)cc3cc(O)cc(OC)c3c2o1`, in data set [1], the “inhibition (INH)” value worked out at 46.3%. Besides, the IC50 in data set [2] (read-out: IC50) was found to be 5.9 µM.

Consider `CCCc1cc(=O)c2c(O)c3c(OC)cc(O)cc3cc2o1`, for which, in data set [1], the “inhibition (INH)” value is reported as “Not Active”. Moreover, in data set [2] (nci-h460), the IC50 entry is reported as “Not Active”.

As for `COc1cc(O)cc2cc3oc(C)cc(=O)c3c(O)c12`, the “inhibition (INH)” value in data set [1] was “Not Active”. Further, in data set [2] (nci-h460), the IC50 entry is listed as “Not Active”.

Consider `CCCc1cc(=O)c2c(OC)c(OC)c3cc(O)cc(OC)c3c2o1`, for which the “inhibition (INH)” value in data set [1] was 44%. In addition, the IC50 in data set [2] (read-out: IC50) came out at 16.6 µM.

For the compound `CCCc1cc(=O)c2c(O)c(OC)c3cc(O)cc(OC)c3c2o1`, the “inhibition (INH)” value in data set [1] is given as 27.5%. Moreover, the IC50 in data set [2] (read-out: IC50) is above 20 µM.

In the case of `COc1cc(O)cc2cc(O)c3c(=O)cc(C)oc3c12`, the “inhibition (INH)” value in data set [1] is reported as 31%. The IC50 in data set [2] (read-out: IC50) turned out to be 12.8 µM.

With `CCCc1cc(=O)c2c(O)cc3cc(O)cc(OC)c3c2o1` [COMAPARVIN], the “inhibition (INH)” value in data set [1] is 54.3%. In addition, in data set [2] (read-out: IC50), the IC50 is 9 µM.
